PMC9520911, “New quinoline-based triazole hybrid analogs as effective inhibitors of α-amylase and α-glucosidase: Preparation, in vitro evaluation, and molecular docking along with in silico studies” (Frontiers in Chemistry, 2022)

Key:
[1] = molecular target: T1, Porcine pancreatic α-amylase (Sus scrofa, UniProt P00690); assay: α-amylase inhibition assay (starch / dinitrosalicylic acid); format: biochemical; conditions: for IC50: in vitro, mean ± SEM
T1 sequence (P00690 16-511): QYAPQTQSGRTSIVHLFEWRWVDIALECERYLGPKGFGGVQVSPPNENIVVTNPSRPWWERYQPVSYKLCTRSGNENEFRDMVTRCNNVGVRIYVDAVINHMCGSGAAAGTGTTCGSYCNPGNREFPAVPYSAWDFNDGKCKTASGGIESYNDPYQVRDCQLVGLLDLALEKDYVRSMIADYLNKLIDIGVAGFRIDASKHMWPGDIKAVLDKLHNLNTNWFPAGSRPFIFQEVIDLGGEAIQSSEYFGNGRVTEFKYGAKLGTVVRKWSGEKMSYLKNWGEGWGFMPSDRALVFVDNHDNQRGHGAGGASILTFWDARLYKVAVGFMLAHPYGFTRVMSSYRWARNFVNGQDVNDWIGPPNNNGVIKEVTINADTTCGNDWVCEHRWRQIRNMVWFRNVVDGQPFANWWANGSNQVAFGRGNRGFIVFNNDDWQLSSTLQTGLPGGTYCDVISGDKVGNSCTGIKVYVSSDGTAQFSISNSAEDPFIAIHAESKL
Description: After preincubation, 40 μL of a 1% starch solution in 0.02 M sodium phosphate buffer (pH 6.9 with 0.006 M sodium chloride) was added to each tube at 5 s intervals. […] The reaction was stopped with 100 μL of dinitro salicylic acid color reagent. The test tubes were then incubated in a boiling water bath for 5 min and cooled to room temperature. The reaction mixture was then diluted after adding 900 μL distilled water and the absorbance was measured at 540 nm.
Ac = the absorbance of the control
As = the absorbance of the sample

SMILES	IC50 [1] [µM]	melting point	more potency than scaffold 7d (α-amylase) ([1]; relative to 7d) [folds]	enhanced potency than standard acarbose drug (α-amylase) ([1]; relative to acarbose)
O=[N+]([O-])c1cccc(-n2c(-c3ccc4cccnc4c3)n[nH]c2=S)c1 [6d, 4-(3-Nitrophenyl)-5-(quinolin-7-yl)-2,4-dihydro-3H-1,2,4-triazole-3-thione]	21.4 ± 0.3	130 to 131 °C	–	–
S=c1[nH]nc(-c2ccc3cccnc3c2)n1-c1ccccc1Cl [12d, 4-(2-Chlorophenyl)-5-(quinolin-7-yl)-2,4-dihydro-3H-1,2,4-triazole-3-thione]	4.3 ± 0.1	136 to 137 °C	–	–
O=[N+]([O-])c1ccc(-n2c(-c3ccc4cccnc4c3)n[nH]c2=S)cc1 [7d, 4-(4-Nitrophenyl)-5-(quinolin-7-yl)-2,4-dihydro-3H-1,2,4-triazole-3-thione]	11.6 ± 0.2	127 to 128 °C	–	–
O=[N+]([O-])c1ccccc1-n1c(-c2ccc3cccnc3c2)n[nH]c1=S [5d, 4-(2-Nitrophenyl)-5-(quinolin-7-yl)-2,4-dihydro-3H-1,2,4-triazole-3-thione]	5.3 ± 0.2	139 to 140 °C	–	–
Fc1ccccc1-n1c(-c2ccc3cccnc3c2)n[nH]c1=S [9d, 4-(2-Fluorophenyl)-5-(quinolin-7-yl)-2,4-dihydro-3H-1,2,4-triazole-3-thione]	1.5 ± 0.1	129 to 130 °C	–	–
S=c1[nH]nc(-c2ccc3cccnc3c2)n1-c1ccc(-c2ccccc2)cc1 [19d]	18.5 ± 0.3	–	–	–
Fc1ccc(-n2c(-c3ccc4cccnc4c3)n[nH]c2=S)cc1 [11d, 4-(4-Fluorophenyl)-5-(quinolin-7-yl)-2,4-dihydro-3H-1,2,4-triazole-3-thione]	0.8 ± 0.05	131 to 132 °C	–	ten-fold
S=c1[nH]nc(-c2ccc3cccnc3c2)n1-c1ccc(Br)cc1 [17d, 4-(4-Bromophenyl)-5-(quinolin-7-yl)-2,4-dihydro-3H-1,2,4-triazole-3-thione]	19.2 ± 0.3	132 to 133 °C	–	–

Now from value to compound:

IC50 [1] [µM]	melting point	more potency than scaffold 7d (α-amylase) ([1]; relative to 7d) [folds]	enhanced potency than standard acarbose drug (α-amylase) ([1]; relative to acarbose)	SMILES
22.6 ± 0.6	139 to 140 °C	–	–	Cc1ccccc1-n1c(-c2ccc3cccnc3c2)n[nH]c1=S [2d, 5-(Quinolin-7-yl)-4-(o-tolyl)-2,4-dihydro-3H-1,2,4-triazole-3-thione]
40.2 ± 0.7	137 to 138 °C (dec.)	–	–	S=c1[nH]nc(-c2ccc3cccnc3c2)n1-c1ccccc1 [1d, 4-Phenyl-5-(quinolin-7-yl)-2,4-dihydro-3H-1,2,4-triazole-3-thione]
21.6 ± 0.4	127 to 128 °C	–	–	Cc1ccc(-n2c(-c3ccc4cccnc4c3)n[nH]c2=S)cc1 [4d, 5-(Quinolin-7-yl)-4-(p-tolyl)-2,4-dihydro-3H-1,2,4-triazole-3-thione]
1.8 ± 0.1	133 to 134 °C	–	–	S=c1[nH]nc(-c2ccc3cccnc3c2)n1-c1ccc(Cl)c(Cl)c1 [18d, 4-(3,4-Dichlorophenyl)-5-(quinolin-7-yl)-2,4-dihydro-3H-1,2,4-triazole-3-thione]
14.6 ± 0.3	141 to 142 °C	–	–	S=c1[nH]nc(-c2ccc3cccnc3c2)n1-c1cccc(Cl)c1 [13d, 4-(3-Chlorophenyl)-5-(quinolin-7-yl)-2,4-dihydro-3H-1,2,4-triazole-3-thione]
6.4 ± 0.3	131 to 132 °C	2	–	S=c1[nH]nc(-c2ccc3cccnc3c2)n1-c1ccc(Cl)cc1 [14d, 4-(4-Chlorophenyl)-5-(quinolin-7-yl)-2,4-dihydro-3H-1,2,4-triazole-3-thione]
–	134 to 135 °C	–	–	COc1ccc(-n2c(-c3ccc4cccnc4c3)n[nH]c2=S)cc1 [8d, 4-(4-Methoxyphenyl)-5-(quinolin-7-yl)-2,4-dihydro-3H-1,2,4-triazole-3-thione]
31.8 ± 0.6	130 to 131 °C	–	–	S=c1[nH]nc(-c2ccc3cccnc3c2)n1-c1cccc(Br)c1 [16d, 4-(3-Bromophenyl)-5-(quinolin-7-yl)-2,4-dihydro-3H-1,2,4-triazole-3-thione]
17.2 ± 0.3	135 to 136 °C	–	–	S=c1[nH]nc(-c2ccc3cccnc3c2)n1-c1ccccc1Br [15d, 4-(2-Bromophenyl)-5-(quinolin-7-yl)-2,4-dihydro-3H-1,2,4-triazole-3-thione]
32.3 ± 0.6	136 to 137 °C	–	–	Cc1cccc(-n2c(-c3ccc4cccnc4c3)n[nH]c2=S)c1 [3d, 5-(Quinolin-7-yl)-4-(m-tolyl)-2,4-dihydro-3H-1,2,4-triazole-3-thione]
2.1 ± 0.1	128 to 129 °C	–	–	Fc1cccc(-n2c(-c3ccc4cccnc4c3)n[nH]c2=S)c1 [10d, 4-(3-Fluorophenyl)-5-(quinolin-7-yl)-2,4-dihydro-3H-1,2,4-triazole-3-thione]
